Laboratory results reported in ChEMBL document CHEMBL1201862, “PubChem BioAssay data set” (2004).
Active and inactive are the calls of the source.

What was measured:
[1] = human group III sPLA2 inhibitors, dose response, biochemical, QFRET, IC50 (AID 743457);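 note: green fluorescence rise as the enzyme cleaves BODIPY PC-A2 in liposomes; potency for inhibition of the enzyme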
[2] = cells; type: functional, cell-based
[3] = molecular target: T1, Trace amine-associated receptor 1 (Homo sapiens, UniProt Q96RJ0); assay: Counterscreen for agonists of the human trace amine associated receptor 1 (hTAAR1): Fluorescence-based cell-based high throughput dose response assay to identify hTAAR1 agonist that also desensitize TAAR1 receptor response.; type: functional
T1 sequence (Q96RJ0 whole entry): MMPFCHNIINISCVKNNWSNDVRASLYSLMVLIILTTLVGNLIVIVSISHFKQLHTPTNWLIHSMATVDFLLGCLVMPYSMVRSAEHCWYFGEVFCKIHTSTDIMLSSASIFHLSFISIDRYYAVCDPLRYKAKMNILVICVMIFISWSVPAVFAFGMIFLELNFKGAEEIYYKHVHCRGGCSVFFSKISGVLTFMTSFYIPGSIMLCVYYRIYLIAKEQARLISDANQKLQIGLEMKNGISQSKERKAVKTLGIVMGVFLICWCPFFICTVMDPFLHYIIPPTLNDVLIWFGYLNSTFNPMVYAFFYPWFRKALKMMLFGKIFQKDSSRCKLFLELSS

[4] = molecular target: T1, Trace amine-associated receptor 1; assay: Fluorescence-based cell-based high throughput dose response assay to identify agonists of the human trace amine associated receptor 1 (TAAR1).; type: functional
[5] = cells; type: functional, cell-based; remark: listed apart in the source
[6] = test system: HEK293; assay: cells; conditions: Homo sapiens
[7] = test system: HEK293; assay: cells; conditions: Homo sapiens; remark: listed apart in the source
[8] = molecular target: T2, Adenosylmethionine-8-amino-7-oxononanoate aminotransferase (Mycobacterium tuberculosis, UniProt P9WQ81); assay: Mycobacterium tuberculosis BioA enzyme inhibitor Measured in Biochemical System Using Plate Reader - 2163-02_Inhibitor_Dose_CherryPick_Activity.; type: functional, Mycobacterium tuberculosis UT205
T2 sequence (P9WQ81 whole entry): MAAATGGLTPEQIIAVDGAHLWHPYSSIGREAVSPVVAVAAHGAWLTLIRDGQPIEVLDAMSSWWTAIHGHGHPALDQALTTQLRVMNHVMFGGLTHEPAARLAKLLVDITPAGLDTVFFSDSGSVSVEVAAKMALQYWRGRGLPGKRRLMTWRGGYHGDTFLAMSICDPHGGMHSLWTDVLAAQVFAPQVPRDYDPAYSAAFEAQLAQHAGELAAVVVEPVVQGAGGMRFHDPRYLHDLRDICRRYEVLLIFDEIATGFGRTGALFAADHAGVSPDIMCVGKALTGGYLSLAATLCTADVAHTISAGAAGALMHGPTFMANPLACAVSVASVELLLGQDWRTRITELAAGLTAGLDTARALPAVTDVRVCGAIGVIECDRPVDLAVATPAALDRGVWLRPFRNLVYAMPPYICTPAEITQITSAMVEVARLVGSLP

[9] = molecular target: T3, Microphthalmia-associated transcription factor (Homo sapiens, UniProt O75030); assay: TRPM1 promoter luciferase signal decrease, dose response, MITF inhibitor project, cell-based, SK-MEL-5, cherry-picked, set 3 (AID 493073); type: functional
T3 sequence (O75030 whole entry): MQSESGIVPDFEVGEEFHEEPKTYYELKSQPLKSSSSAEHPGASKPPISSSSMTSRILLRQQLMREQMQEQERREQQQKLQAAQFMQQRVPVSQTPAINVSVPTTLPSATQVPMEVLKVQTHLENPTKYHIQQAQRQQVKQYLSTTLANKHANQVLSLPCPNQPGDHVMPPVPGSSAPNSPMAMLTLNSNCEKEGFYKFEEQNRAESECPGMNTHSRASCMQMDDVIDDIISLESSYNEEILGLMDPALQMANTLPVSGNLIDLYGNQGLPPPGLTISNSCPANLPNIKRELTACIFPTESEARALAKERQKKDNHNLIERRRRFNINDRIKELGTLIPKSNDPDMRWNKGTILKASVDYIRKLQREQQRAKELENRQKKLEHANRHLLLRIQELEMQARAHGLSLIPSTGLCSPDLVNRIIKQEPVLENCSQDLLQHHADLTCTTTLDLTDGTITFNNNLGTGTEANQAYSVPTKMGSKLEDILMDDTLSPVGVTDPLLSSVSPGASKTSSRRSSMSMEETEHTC

[10] = molecular target: T4, Small ubiquitin-related modifier 1 (Homo sapiens, UniProt P63165); assay: inhibitors of SUMO1 peptide binding, dose response, biochemical, fluorescence polarization, uHTS hits (AID 624382); type: functional; conditions: read-out: IC50_Mean
[11] = molecular target: Beta-lactamase (Salmonella choleraesuis (strain SC-B67), UniProt Q5J463)
[12] = molecular target: T5, Voltage-gated N-type calcium channel alpha-1B subunit/Amyloid beta A4 precursor protein-binding family A member 1 (Homo sapiens, UniProt Q00975+Q02410); type: protein assay
[13] = molecular target: T5, Voltage-gated N-type calcium channel alpha-1B subunit/Amyloid beta A4 precursor protein-binding family A member 1; type: protein assay; remark: listed apart in the source
[14] = molecular target: T4, Small ubiquitin-related modifier 1; assay: inhibitors of SUMO1 partner interactions, dose response, biochemical, FRET (AID 624383); type: functional; conditions: read-out: IC50_Mean
[15] = molecular target: Beta-lactamase (Pseudomonas aeruginosa, UniProt Q79MP6);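 note: biochemical dose-response test of metallo-beta-lactamase enzyme inhibition, read out by epi-absorbance; purified recombinant IMP-1 metallo-beta-lactamase with nitrocefin as substrate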
[16] = molecular target: T6, Ubiquitin-conjugating enzyme E2 N (Homo sapiens, UniProt P61088); type: functional;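 note: Dose-response confirmation in a TR-FRET assay detecting UBC13-driven polyubiquitin chain formation, inhibition measured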
T6 sequence (P61088 whole entry): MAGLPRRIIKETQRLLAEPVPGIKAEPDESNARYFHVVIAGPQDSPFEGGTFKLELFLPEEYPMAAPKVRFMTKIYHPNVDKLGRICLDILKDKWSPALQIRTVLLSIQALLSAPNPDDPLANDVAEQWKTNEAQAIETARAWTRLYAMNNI

[17] = insulin promoter down-regulators in MIN6 cells, imaging, high-content screening, mouse beta cells (AID 1628); type: functional
[18] = cytotoxicity in MIN6 insulinoma cells, dose response, cytotoxicity control, cell-based, mouse insulinoma (AID 2122); type: functional;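 note: confirmatory high-throughput counterscreen run to flag cytotoxic compounds; mouse MIN-6 beta cells carrying an insulin promoter eGFP reporter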
[19] = HEp-2 cell cytotoxicity, dose response, cytotoxicity control for RSV inhibitor project, HTS (AID 2410); type: functional; conditions: human respiratory syncytial virus
[20] = molecular target: T7, ATP-dependent translocase ABCB1 (Homo sapiens, UniProt P08183); assay: ABCB1 efflux inhibitor potency, dose response, Jurkat-DNR cells, JC-1, flow cytometry, set 2 (AID 504569); type: functional; conditions: read-out: EC50_MICROM_;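 note: potency of pump inhibitors that raise cellular JC-1 green fluorescence up to the nicardipine level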
[21] = molecular target: T7, ATP-dependent translocase ABCB1; assay: ABCG2 efflux pump inhibitor potency, dose response, Ig-MXP3 cells, JC-1, flow cytometry, set 2 (AID 504566); type: functional; conditions: read-out: EC50_MICROM_;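 note: flow cytometry median green fluorescence of retained JC-1 dye; potency of efflux pump inhibition measured as rising substrate retention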
[22] = molecular target: Ras and Rab interactor 1/Tyrosine-protein kinase ABL1 (Homo sapiens, UniProt P00519+Q13671); type: functional;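 note: biochemical TR-FRET dose-response test measuring inhibition of binding between Rin1 and Abl proteins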

T4 sequence (P63165 whole entry): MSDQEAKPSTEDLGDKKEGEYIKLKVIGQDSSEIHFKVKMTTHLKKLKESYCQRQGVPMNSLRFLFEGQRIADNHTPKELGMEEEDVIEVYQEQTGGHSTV
T5 sequence (Q00975 whole entry): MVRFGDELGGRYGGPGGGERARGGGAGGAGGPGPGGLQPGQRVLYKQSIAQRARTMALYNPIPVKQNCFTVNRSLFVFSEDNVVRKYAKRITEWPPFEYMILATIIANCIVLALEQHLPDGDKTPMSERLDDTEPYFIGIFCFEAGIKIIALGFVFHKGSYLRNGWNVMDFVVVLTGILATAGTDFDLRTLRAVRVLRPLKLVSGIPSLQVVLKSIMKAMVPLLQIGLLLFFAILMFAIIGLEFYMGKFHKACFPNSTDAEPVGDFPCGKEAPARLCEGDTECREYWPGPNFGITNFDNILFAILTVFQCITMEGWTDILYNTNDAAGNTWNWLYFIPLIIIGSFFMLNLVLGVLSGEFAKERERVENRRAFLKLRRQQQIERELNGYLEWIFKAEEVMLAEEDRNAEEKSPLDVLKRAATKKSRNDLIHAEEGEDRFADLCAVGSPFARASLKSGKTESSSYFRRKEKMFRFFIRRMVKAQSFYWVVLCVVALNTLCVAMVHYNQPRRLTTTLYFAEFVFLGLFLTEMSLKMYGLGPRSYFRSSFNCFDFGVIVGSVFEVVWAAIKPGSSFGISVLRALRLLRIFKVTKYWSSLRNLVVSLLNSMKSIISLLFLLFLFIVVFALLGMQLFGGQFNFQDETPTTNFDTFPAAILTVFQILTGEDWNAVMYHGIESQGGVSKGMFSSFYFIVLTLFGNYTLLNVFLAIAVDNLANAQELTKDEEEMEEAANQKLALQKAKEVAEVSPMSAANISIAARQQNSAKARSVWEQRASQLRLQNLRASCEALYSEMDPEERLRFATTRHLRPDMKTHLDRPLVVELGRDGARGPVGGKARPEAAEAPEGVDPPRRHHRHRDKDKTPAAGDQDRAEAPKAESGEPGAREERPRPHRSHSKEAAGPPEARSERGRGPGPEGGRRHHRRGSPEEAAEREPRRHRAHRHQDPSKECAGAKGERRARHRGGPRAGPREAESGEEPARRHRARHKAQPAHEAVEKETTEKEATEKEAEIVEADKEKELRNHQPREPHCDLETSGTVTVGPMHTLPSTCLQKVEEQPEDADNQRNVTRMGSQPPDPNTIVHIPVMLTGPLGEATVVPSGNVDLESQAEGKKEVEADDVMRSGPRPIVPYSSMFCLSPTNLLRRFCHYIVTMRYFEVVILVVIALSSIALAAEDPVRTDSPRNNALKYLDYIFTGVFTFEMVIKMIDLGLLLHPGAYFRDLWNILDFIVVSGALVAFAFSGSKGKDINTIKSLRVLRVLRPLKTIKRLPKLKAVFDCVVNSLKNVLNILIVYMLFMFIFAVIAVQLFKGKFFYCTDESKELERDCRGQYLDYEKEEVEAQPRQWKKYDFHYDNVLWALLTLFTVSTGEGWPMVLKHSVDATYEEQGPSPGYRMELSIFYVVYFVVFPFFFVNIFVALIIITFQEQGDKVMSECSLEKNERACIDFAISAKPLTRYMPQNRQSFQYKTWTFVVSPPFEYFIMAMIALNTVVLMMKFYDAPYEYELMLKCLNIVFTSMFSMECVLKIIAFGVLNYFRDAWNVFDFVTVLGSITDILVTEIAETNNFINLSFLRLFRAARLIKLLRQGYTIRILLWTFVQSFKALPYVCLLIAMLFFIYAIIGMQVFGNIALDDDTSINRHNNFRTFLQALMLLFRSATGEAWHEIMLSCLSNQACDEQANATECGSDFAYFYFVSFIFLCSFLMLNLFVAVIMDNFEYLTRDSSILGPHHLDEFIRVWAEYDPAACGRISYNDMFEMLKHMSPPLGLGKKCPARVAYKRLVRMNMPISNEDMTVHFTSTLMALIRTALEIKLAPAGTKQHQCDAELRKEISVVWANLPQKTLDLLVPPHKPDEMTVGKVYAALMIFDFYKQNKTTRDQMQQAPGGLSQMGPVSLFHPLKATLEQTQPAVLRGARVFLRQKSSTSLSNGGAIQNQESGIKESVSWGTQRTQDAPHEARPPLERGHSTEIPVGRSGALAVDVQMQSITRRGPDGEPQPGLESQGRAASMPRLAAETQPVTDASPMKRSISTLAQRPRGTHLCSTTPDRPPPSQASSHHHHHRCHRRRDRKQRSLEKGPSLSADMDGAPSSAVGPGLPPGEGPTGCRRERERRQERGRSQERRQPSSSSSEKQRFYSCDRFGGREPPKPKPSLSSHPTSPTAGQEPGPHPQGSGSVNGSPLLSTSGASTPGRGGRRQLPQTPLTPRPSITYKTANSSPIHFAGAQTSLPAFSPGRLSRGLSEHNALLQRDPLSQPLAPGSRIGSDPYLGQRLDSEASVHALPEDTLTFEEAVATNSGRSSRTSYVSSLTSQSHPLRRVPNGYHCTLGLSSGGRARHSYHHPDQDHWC
T5 sequence (Q02410 whole entry): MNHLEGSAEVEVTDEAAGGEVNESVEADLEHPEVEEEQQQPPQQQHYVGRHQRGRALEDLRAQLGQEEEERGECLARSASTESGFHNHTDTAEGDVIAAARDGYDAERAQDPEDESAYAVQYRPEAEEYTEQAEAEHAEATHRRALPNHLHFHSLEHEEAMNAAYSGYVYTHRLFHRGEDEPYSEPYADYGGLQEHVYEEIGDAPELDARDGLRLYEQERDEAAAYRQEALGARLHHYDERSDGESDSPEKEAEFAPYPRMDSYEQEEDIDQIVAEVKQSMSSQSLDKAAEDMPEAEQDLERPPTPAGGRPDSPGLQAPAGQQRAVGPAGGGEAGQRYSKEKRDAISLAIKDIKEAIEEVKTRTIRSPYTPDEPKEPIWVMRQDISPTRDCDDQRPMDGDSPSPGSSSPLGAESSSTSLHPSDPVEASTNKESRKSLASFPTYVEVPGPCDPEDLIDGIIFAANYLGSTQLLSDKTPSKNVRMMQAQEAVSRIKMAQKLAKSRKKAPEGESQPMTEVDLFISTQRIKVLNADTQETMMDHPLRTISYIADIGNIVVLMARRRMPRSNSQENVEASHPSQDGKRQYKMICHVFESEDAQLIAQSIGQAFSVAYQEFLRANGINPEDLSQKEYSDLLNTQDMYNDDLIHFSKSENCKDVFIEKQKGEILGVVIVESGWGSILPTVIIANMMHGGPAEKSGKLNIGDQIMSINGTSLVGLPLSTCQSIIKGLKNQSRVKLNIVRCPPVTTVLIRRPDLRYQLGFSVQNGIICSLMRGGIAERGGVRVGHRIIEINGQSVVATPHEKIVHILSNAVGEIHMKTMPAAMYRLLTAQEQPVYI
T7 sequence (P08183 whole entry): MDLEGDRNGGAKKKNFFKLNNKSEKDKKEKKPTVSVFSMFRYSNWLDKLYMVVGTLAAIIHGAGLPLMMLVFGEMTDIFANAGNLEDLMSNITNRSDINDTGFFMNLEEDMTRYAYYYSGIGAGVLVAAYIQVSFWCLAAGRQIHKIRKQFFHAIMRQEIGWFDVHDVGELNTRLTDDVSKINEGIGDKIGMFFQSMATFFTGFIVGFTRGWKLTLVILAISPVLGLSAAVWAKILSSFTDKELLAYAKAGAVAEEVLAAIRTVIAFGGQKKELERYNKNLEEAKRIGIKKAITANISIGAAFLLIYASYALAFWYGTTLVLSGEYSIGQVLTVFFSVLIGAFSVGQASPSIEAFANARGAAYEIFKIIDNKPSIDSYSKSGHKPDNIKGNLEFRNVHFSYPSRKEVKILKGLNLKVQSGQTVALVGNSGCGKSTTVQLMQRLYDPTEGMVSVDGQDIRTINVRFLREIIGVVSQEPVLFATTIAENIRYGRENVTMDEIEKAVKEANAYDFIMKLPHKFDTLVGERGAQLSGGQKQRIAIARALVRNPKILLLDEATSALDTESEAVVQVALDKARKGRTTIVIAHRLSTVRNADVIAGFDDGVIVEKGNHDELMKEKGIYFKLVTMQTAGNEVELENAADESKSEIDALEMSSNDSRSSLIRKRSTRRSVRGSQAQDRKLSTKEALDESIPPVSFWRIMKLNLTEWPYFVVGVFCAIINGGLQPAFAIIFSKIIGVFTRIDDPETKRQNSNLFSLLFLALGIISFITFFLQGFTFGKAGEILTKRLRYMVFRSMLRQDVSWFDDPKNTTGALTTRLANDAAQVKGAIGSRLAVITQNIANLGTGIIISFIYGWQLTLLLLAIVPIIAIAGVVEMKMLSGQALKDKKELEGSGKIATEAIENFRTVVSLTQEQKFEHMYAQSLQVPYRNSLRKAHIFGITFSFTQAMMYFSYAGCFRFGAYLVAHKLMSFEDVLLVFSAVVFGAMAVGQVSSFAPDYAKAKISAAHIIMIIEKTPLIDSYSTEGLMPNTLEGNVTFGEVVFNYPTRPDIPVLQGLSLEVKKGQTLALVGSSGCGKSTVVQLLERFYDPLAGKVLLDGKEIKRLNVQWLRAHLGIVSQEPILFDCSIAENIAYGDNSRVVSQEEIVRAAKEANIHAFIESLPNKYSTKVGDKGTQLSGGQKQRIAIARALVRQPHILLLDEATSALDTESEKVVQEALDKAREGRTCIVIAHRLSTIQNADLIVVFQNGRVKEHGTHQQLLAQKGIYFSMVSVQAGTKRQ
Sequence of Beta-lactamase (Salmonella choleraesuis (strain SC-B67), UniProt Q5J463) (Q5J463 whole entry): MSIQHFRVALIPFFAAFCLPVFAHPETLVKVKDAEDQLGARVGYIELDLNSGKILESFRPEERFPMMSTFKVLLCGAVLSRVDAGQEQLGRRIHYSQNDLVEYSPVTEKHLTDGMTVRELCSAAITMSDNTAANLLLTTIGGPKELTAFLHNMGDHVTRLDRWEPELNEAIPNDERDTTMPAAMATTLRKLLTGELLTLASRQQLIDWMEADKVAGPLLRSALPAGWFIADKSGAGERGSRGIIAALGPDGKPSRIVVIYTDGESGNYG
Sequence of Beta-lactamase (Pseudomonas aeruginosa, UniProt Q79MP6) (Q79MP6 whole entry): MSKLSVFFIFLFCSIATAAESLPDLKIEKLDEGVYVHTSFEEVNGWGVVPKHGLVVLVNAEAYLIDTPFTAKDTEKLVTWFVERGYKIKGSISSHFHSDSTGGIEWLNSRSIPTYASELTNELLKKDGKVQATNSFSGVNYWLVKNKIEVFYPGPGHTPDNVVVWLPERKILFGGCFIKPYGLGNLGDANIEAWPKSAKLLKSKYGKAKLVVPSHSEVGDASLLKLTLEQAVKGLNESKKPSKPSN

With `O=C(Cc1cccs1)NNC(=S)NCc1ccc(Cl)cc1` the IC50 [1] was > 122 µM (inactive).
For `CCOC(=O)C(NC(C)=O)(N1CCc2ccccc2C1)C(F)(F)F` (centres undefined), the EC50 [2] was > 29.9 µM (inactive), the IC50 [3] was 2.8 µM (active) and the EC50 [4] was 0.0868 µM (active). The IC50 [5] was > 29.9 µM (inactive).
With `CN(C)C(=S)N=c1ssc(=S)n1Cc1cccnc1` the EC50 [6] was > 59.6 µM (inactive) and the EC50 [7] was > 59.6 µM (inactive).
With `COc1cccc(Nc2nc(NCCO)c3ccccc3n2)c1` the EC50 [2] was > 29.9 µM (inactive), the IC50 [3] was 14 µM (inactive) and the EC50 [4] was 4.4 µM (active). For the same compound, the IC50 [5] was > 29.9 µM (inactive).
For `O=C(Nc1cccnc1)c1ccc(Oc2ccccc2)cc1`, the AC50 [8] was 0.751 µM (active).
For `CCSc1ccccc1C(=O)n1nnc2ccccc21`, the AC50 [9] was 11.8 µM (active).
For `Cc1ccc(Cn2c(C(C)Nc3nc(-c4ccc(C)cc4)cs3)nc3cc(Cl)c(Cl)cc32)cc1` (centres undefined), the IC50 [10] was > 66.6 µM (inactive), the IC50 [11] was > 59.6 µM (inactive) and the IC50 [12] was 4.57 µM (active). For the same compound, the IC50 [13] was > 50 µM (inactive), the IC50 [14] was 3.52 µM (active) and the IC50 [15] was > 59.6 µM (inactive).
For `CCOc1ccc2nc(NC3=NC(C)=CC(C)(C)N3)nc(C)c2c1`, the IC50 [16] was > 20 µM (inactive), the IC50 [17] was 3.25 µM (active) and the IC50 [18] was 6.46 µM (active).
In the case of `COc1cc(OC)c(-c2nn3c(C4CCCCC4)nnc3s2)cc1OC`, the EC50 [6] is reported as > 59.6 µM (inactive), the EC50 [7] is reported as > 59.6 µM (inactive) and the CC50 [19] is reported as 33.1 µM (active).
For `O=C(c1ccccc1)N1CCN(c2cc(-c3ccccc3)nc3cc(-c4cccc(F)c4)nn23)CC1`, the EC50 [20] was 5.82 µM (active) and the EC50 [21] was 2.41 µM (active).
With `Nc1c(N(CCC2=CCCCC2)C(=O)COc2ccc([N+](=O)[O-])cc2)c(=O)[nH]c(=O)n1Cc1ccccc1` the AC50 [9] was 14.2 µM (active).
With `CC1(C)CC(=O)C(/C=N\CCc2ccc(O)cc2)=C(O)C1` the EC50 [2] was > 29.9 µM (inactive), the IC50 [3] was 8.81 µM (active) and the EC50 [4] was 1.84 µM (active). For the same compound, the IC50 [5] was > 29.9 µM (inactive).
For `Cc1ccc(S(=O)(=O)N2CCN(C(=O)Cn3cnc4c3c(=O)n(C)c(=O)n4C)CC2)cc1C`, the IC50 [22] was 21.5 µM (inactive).
With `CC(C)(C)[S@+]([O-])N1Cc2cc(C(=O)NCc3ccccc3F)nc(-c3cccc(-c4cccnc4)c3)c2[C@@H]1CCO` the AC50 [8] was 9.55 µM (active).
